This test has as its system batrachotoxin (BTX) binding site of the sodium channel. In words: Affinity to the batrachotoxin (BTX) binding site of the sodium channel. As to conditions: [3H]-batrachotoxinin A20 α-benzoate 10 nM; synaptosomes from rat cerebral cortex; test concentration not given. Details: species or system rat.
Turning to `CC1C(NC(=O)c2c(N(C)C(=O)c3cccc(Cl)c3)nc3n2CCCC3)CC2CC1C2(C)C` (stereo not shown) [Example 27, 2-[(3-chloro-benzoyl)-methyl-amino]-5,6,7,8-tetrahydro-imidazo[1,2-a]pyridine-3-carboxylic acid (2,6,6-trimethyl-bicyclo[3.1.1]hept-3-yl)-amide], the “BTX inhibition (rat) (% inhibition)” value came to 35%. Take `CCCCN(C(=O)c1ccc(F)c(F)c1)c1nc2n(c1C(=O)NCCC(C)(C)C)CCCC2` [Example 171, 2-[butyl-(3,4-difluoro-benzoyl)-amino]-5,6,7,8-tetrahydro-imidazo[1,2-a]pyridine-3-carboxylic acid (3,3-dimethyl-butyl)-amide]: the “BTX inhibition (rat) (% inhibition)” value was determined as 47%. Turning to `CN(C(=O)c1cccc2ccccc12)c1nc2n(c1C(=O)Nc1ccc(C(C)(C)C)cc1)CCCC2` [Example 170, 2-[methyl-(naphthalene-1-carbonyl)-amino]-5,6,7,8-tetrahydro-imidazo[1,2-a]pyridine-3-carboxylic acid (4-tert-butyl-phenyl)-amide], the “BTX inhibition (rat) (% inhibition)” value is 80%. In the case of `Cc1ccc(C)c(N2CCN(C(=O)c3c(N(C)C(=O)c4cccc(Cl)c4)nc4n3CCCC4)CC2)c1` [Example 100, 3-chloro-N-{3-[4-(2,5-dimethyl-phenyl)-piperazine-1-carbonyl]-5,6,7,8-tetrahydro-imidazo[1,2-a]pyridin-2-yl}-N-methyl-benzamide] it was 74%.

`CCCCN(C(=O)c1cccc(Cl)c1)c1nc2n(c1C(=O)N1CCN(c3ccccn3)CC1)CCCC2` [Example 72, N-butyl-3-chloro-N-[3-(4-pyridin-2-yl-piperazine-1-carbonyl)-5,6,7,8-tetrahydro-imidazo[1,2-a]pyridin-2-yl]-benzamide]: the “BTX inhibition (rat) (% inhibition)” value was found to be 39%. In the case of `CCCCN(C(=O)c1cccc(Cl)c1)c1nc2n(c1C(=O)N1CCC(O)(c3cccc(C(F)(F)F)c3)CC1)CCCC2` [Example 175, N-butyl-3-chloro-N-{3-[4-hydroxy-4-(3-trifluoromethyl-phenyl)-piperidine-1-carbonyl]-5,6,7,8-tetrahydro-imidazo[1,2-a]pyridin-2-yl}-benzamide], the “BTX inhibition (rat) (% inhibition)” value is 65%. In the case of `CN(C(=O)c1cccc2ccccc12)c1nc2n(c1C(=O)N1CCN(CC=Cc3ccccc3)CC1)CCCC2` [Example 173, naphthalene-1-carboxylic acid methyl-{3-[4-(3-phenyl-allyl)-piperazine-1-carbonyl]-5,6,7,8-tetrahydro-imidazo[1,2-a]pyridin-2-yl}-amide] it was 74%; in that of `CCCCN(C(=O)c1cccc(Cl)c1)c1nc2n(c1C(=O)Nc1ccc3c(c1)OCCO3)CCCC2` [Example 181, 2-[butyl-(3-chloro-benzoyl)-amino]-5,6,7,8-tetrahydro-imidazo[1,2-a]pyridine-3-carboxylic acid (2,3-dihydro-benzo[1,4]dioxin-6-yl)-amide], 82%. As for `CCCCN(C(=O)c1cccc(Cl)c1)c1nc2n(c1C(=O)NCc1ccccc1C(F)(F)F)CCCC2` [Example 51, 2-[butyl-(3-chloro-benzoyl)-amino]-5,6,7,8-tetrahydro-imidazo[1,2-a]pyridine-3-carboxylic acid 2-trifluoromethyl-benzylamide], the “BTX inhibition (rat) (% inhibition)” value came out at 35%. As to `CN(C(=O)c1cccc2ccccc12)c1nc2n(c1C(=O)N1CCN(Cc3cc4ccccc4o3)CC1)CCCC2` [Example 108, naphthalene-1-carboxylic acid [3-(4-benzofuran-2-ylmethyl-piperazine-1-carbonyl)-5,6,7,8-tetrahydro-imidazo[1,2-a]pyridin-2-yl]-methyl-amide], the “BTX inhibition (rat) (% inhibition)” value is reported as 41%. Take `CCc1ccccc1N1CCN(C(=O)c2c(N(C)C(=O)c3ccccc3)nc3n2CCCC3)CC1` [Example 3, N-{3-[4-(2-ethyl-phenyl)-piperazine-1-carbonyl]-5,6,7,8-tetrahydro-imidazo[1,2-a]pyridin-2-yl}-N-methyl-benzamide]: the “BTX inhibition (rat) (% inhibition)” value was 34%.

Turning to `CCCCN(C(=O)c1ccc(F)c(F)c1)c1nc2n(c1C(=O)N1CCN(C(c3ccccc3)c3ccccc3)CC1)CCCC2` [Example 56, N-[3-(4-benzhydryl-piperazine-1-carbonyl)-5,6,7,8-tetrahydro-imidazo[1,2-a]pyridin-2-yl]-N-butyl-3,4-difluoro-benzamide], the “BTX inhibition (rat) (% inhibition)” value was 65%. Take `CCCCN(C(=O)c1cccc(Cl)c1)c1nc2n(c1C(=O)NCCc1c[nH]c3c(C)cccc13)CCCC2` [Example 69, 2-[butyl-(3-chloro-benzoyl)-amino]-5,6,7,8-tetrahydro-imidazo[1,2-a]pyridine-3-carboxylic acid [2-(7-methyl-1H-indol-3-yl)-ethyl]-amide]: the “BTX inhibition (rat) (% inhibition)” value is 48%. Under `CCCCN(C(=O)c1cccc(Cl)c1)c1nc2n(c1C(=O)NCc1cccc(C)c1C)CCCC2` [Example 133, 2-[butyl-(3-chloro-benzoyl)-amino]-5,6,7,8-tetrahydro-imidazo[1,2-a]pyridine-3-carboxylic acid 2,3-dimethyl-benzylamide] stands 34%; under `CCCCN(C(=O)c1cccc(Cl)c1)c1nc2n(c1C(=O)N1CCN(c3ccccc3F)CC1)CCCC2` [Example 48, N-butyl-3-chloro-N-{3-[4-(2-fluoro-phenyl)-piperazine-1-carbonyl]-5,6,7,8-tetrahydro-imidazo[1,2-a]pyridin-2-yl}-benzamide], 89%; under `CN(C(=O)c1cccc(Cl)c1)c1nc2n(c1C(=O)N1CC=C(c3ccc(F)cc3)CC1)CCCC2` [Example 61, 3-chloro-N-{3-[4-(4-fluorophenyl)-3,6-dihydro-2H-pyridine-1-carbonyl]-5,6,7,8-tetrahydro-imidazo[1,2-a]pyridin-2-yl}-N-methyl-benzamide], 38%.

`CCCCN(C(=O)c1ccc(F)c(F)c1)c1nc2n(c1C(=O)N1CCN(c3cc(Cl)ccc3C)CC1)CCCC2` [Example 119, N-butyl-N-{3-[4-(5-chloro-2-methyl-phenyl)-piperazine-1-carbonyl]-5,6,7,8-tetrahydro-imidazo[1,2-a]pyridin-2-yl}-3,4-difluoro-benzamide]: the “BTX inhibition (rat) (% inhibition)” value is listed as 83%.

`CCOc1ccc(Br)cc1CN1CCN(C(=O)c2c(N(C)C(=O)Cc3ccccc3)nc3n2CCCC3)CC1` [Example 130, N-{3-[4-(5-bromo-2-ethoxy-benzyl)-piperazine-1-carbonyl]-5,6,7,8-tetrahydro-imidazo[1,2-a]pyridin-2-yl}-N-methyl-2-phenyl-acetamide]: the “BTX inhibition (rat) (% inhibition)” value worked out at 67%. In the case of `CCCCN(C(=O)c1ccc(F)c(F)c1)c1nc2n(c1C(=O)N1CCN(Cc3ccc4c(c3)OCO4)CC1)CCCC2` [Example 137, N-[3-(4-benzo[1,3]dioxol-5-ylmethyl-piperazine-1-carbonyl)-5,6,7,8-tetrahydro-imidazo[1,2-a]pyridin-2-yl]-N-butyl-3,4-difluor-benzamide], the “BTX inhibition (rat) (% inhibition)” value amounted to 72%. As to `CCCCN(C(=O)c1cccc(Cl)c1)c1nc2n(c1C(=O)NCCOc1ccccc1)CCCC2` [Example 107, 2-[butyl-(3-chloro-benzoyl)-amino]-5,6,7,8-tetrahydro-imidazo[1,2-a]pyridine-3-carboxylic acid (2-phenoxy-ethyl)-amide], the “BTX inhibition (rat) (% inhibition)” value is on record as 39%.

Turning to `CN(C(=O)Cc1ccccc1)c1nc2n(c1C(=O)NCCc1cccc(C(F)(F)F)c1)CCCC2` [Example 156, 2-(methyl-phenylacetyl-amino)-5,6,7,8-tetrahydro-imidazo[1,2-a]pyridine-3-carboxylic acid [2-(3-trifluoromethyl-phenyl)-ethyl]-amide], the “BTX inhibition (rat) (% inhibition)” value was found to be 40%.

As to `CN(C(=O)c1ccccc1)c1nc2n(c1C(=O)Nc1ccc3c(c1)OCO3)CCCC2` [Example 85, 2-(benzoyl-methyl-amino)-5,6,7,8-tetrahydro-imidazo[1,2-a]pyridine-3-carboxylic acid benzo[1,3]dioxol-5-ylamide], the “BTX inhibition (rat) (% inhibition)” value came to 30%. For the compound `CN(C(=O)c1cccc(Cl)c1)c1nc2n(c1C(=O)N1CCN(c3cccc(C(F)(F)F)c3)CC1)CCCC2` [Example 14, 3-chloro-N-methyl-N-{3-[4-(3-trifluoromethyl-phenyl)-piperazine-1-carbonyl]-5,6,7,8-tetrahydro-imidazo[1,2-a]pyridin-2-yl}-benzamide], the “BTX inhibition (rat) (% inhibition)” value was 41%. For the compound `CN(C(=O)c1cccc(Cl)c1)c1nc2n(c1C(=O)NCCC(c1ccccc1)c1ccccc1)CCCC2` [Example 128, 2-[(3-chloro-benzoyl)-methyl-amino]-5,6,7,8-tetrahydro-imidazo[1,2-a]pyridine-3-carboxylic acid (3,3-diphenyl-propyl)-amide], the “BTX inhibition (rat) (% inhibition)” value was determined as 85%. As to `CCCCN(C(=O)c1cccc(Cl)c1)c1nc2n(c1C(=O)NC(C)c1ccc3ccccc3c1)CCCC2` (stereo not shown) [Example 141, 2-[butyl-(3-chloro-benzoyl)-amino]-5,6,7,8-tetrahydro-imidazo[1,2-a]pyridine-3-carboxylic acid (1-naphthalen-2-yl-ethyl)-amide], the “BTX inhibition (rat) (% inhibition)” value is recorded as 41%. For `CN(C(=O)c1cccc2ccccc12)c1nc2n(c1C(=O)NCc1cccc(Cl)c1Cl)CCCC2` [Example 33, 2-[methyl-(naphthalene-1-carbonyl)-amino]-5,6,7,8-tetrahydro-imidazo[1,2-a]pyridine-3-carboxylic acid 2,3-dichlor-benzylamide], the “BTX inhibition (rat) (% inhibition)” value is reported as 49%.

`CCCCN(C(=O)c1cccc(Cl)c1)c1nc2n(c1C(=O)NC1CCCCC1OCc1ccccc1)CCCC2` (stereo not shown) [Example 124, 2-[butyl-(3-chloro-benzoyl)-amino]-5,6,7,8-tetrahydro-imidazo[1,2-a]pyridine-3-carboxylic acid (2-benzyloxy-cyclohexyl)-amide]: the “BTX inhibition (rat) (% inhibition)” value came out at 48%. Under `CCCCN(C(=O)c1cccc(Cl)c1)c1nc2n(c1C(=O)NC1CCc3ccccc31)CCCC2` (stereo not shown) [Example 52, 2-[butyl-(3-chloro-benzoyl)-amino]-5,6,7,8-tetrahydro-imidazo[1,2-a]pyridine-3-carboxylic acid indan-1-ylamide] stands 45%.
